Measured values from patent publication US20140179664A1, “Heterocyclyl Pyrimidine Analogues As JAK Inhibitors” (Cellzome Limited, priority 2011, published 2014).

Tested on: STAT5 phosphorylation downstream of JAK3 in human YT cells
Assay: pSTAT5 cell assay (IL-2 stimulated YT cells, AlphaScreen)
Type: cell-based
Conditions: IL-2 stimulation, read-out: Inhibition values (IC50) pSTAT5
Text: STAT5 phosphorylation represents one of the proximal events in the signalling cascade downstream of JAK3 activation. Therefore STAT5 phosphorylation is an appropriate readout to assess the mechanistic effect of JAK3 inhibition. Stimulation of human YT cells, an NK-like cell line, with interleukin-2 (IL-2) results in phosphorylation of STAT5 at tyrosine residue 694 (Tyr694) that can be quantitatively measured by immunodetection with specific antibodies and an appropriate detection method, in this case AlphaScreen assay technology.
Human YT cells were grown in RPMI medium (Lonza, BE12-167) with 2 mM L-Glutamine (Invitrogen, 25030-024) and 10% heat-inactivated FBS (Invitrogen, 10106-169) and kept in a humidified incubator (37° C., 5% CO2). Cells were harvested by centrifugation, washed once with HBSS (Invitrogen, 14180-046), resuspended in HBSS at 1.5×10^6 cells/ml and 0.9×10^4 cells were seeded in 6 μl per well in a 96 well White plate (PerkinElmer, 6005569).
Test compounds were dissolved in DMSO and a 1:3 dilution series (9 steps) was prepared. To generate a dose response curve, 3 μl of fourfold concentrated compound in 4% DMSO/HBSS were added to each cell sample in the 96 well plate resulting in a final DMSO concentration of 1% DMSO. Cells were incubated for one hour in a humidified incubator (37° C., 5% CO2). To each well 3 μl of a fourfold concentrated IL-2 solution (Recombinant human IL-2, Peprotech 200-02; 120 nM solution in HBSS) was added and incubated for 30 minutes at room temperature. Cells were lysed by adding 3 μl of 5× lysis buffer (SureFire lysis buffer; Perkin Elmer, TGRS5S10K) and incubated for 10 minutes at room temperature with gentle shaking
For signal detection by AlphaScreen® technology the SureFire phospho-STAT5 (Tyr694/Tyr699) kit was used according to instructions provided by the manufacturer (Perkin Elmer, TGRS5S10K). Acceptor beads were added as recommended by the manufacturer (Reactivation buffer/Activation buffer/Acceptor beads at a ratio of 40:10:1) and incubated at room temperature for 1.5 hours with gentle shaking Then donor beads were added as recommended (Dilution buffer/Donor beads at a ratio of 20:1) and incubated at room temperature for 1.5 hours with gentle shaking Plates were read on an Envision instrument (Perkin Elmer) with the AlphaScreen protocol. Data were analysed in BioAssay using the nonlinear regression for a sigmoidal dose-response with a variable slope.

IC50: < 0.25 µM
SMILES: NC(=O)Cn1cc(Nc2ncc(Cl)c(N[C@H](CO)c3cccc(F)c3)n2)cn1 [Compound 87]
